{"source": "patent US20220184000A1", "about": "“USE OF CANNABIDIOL IN THE TREATMENT OF DRAVET SYNDROME” (priority 2019, published 2022)", "format_in_all_cases": "in vivo", "key": {"Scn1a^+/− mice [1]": {"test_system": "Scn1a^+/− mice", "test": "Survival / premature mortality in Scn1a^+/− mice, Study II (chronic model of Dravet syndrome)", "experimental": "The animals were group housed throughout Study II except for 3 days during sucrose preference test when each animal was individually housed. This experiment was conducted in dark cycle (dim red light, 8:00-20:00 h). Male 129S-Scn1^atm1Kea/Mmjax heterozygote mice (Jackson Laboratory, USA) were bred with female wild type C57BL/6 mice (Charles River, UK) to obtain Scn1a^+/− and wild type (WT) littermate mice used in this study. At the end of the study, animals were humanely killed by cervical dislocation. […]\nAs seizure-related deaths in this model were unpredictable, animals were video monitored continuously (24 h×7 days) throughout the study and any mortality observed was cross checked with the available video footage to confirm the reason of death.\n(§1) In Study II, the data were analysed in GraphPad Prism 6 software. […] Data obtained from rotarod, gait, social interaction (active interaction), EPM, sucrose preference, RAM (RME) tests were normally distributed and the differences between the three groups were analysed by one-way ANOVA. […] Parametric data are presented in scattered dot plot in the figures and are expressed as mean±SEM. Non-parametric data are presented in box plot in the figures and are expressed as median, min to max, and interquartile range (IQR). […]"}, "Scn1a^+/− mice [2]": {"test_system": "Scn1a^+/− mice", "test": "Accelerated rotarod test (motor function), Study II", "experimental": "(§2) Here, Scn1a^+/− were randomly divided into two groups and subcutaneously injected with either CBD (100 mg/kg twice daily; n=12) or its vehicle (ethanol:Kolliphor®:0.9% saline=2:1:17; n=29) from P8 onwards until P52 or death (whichever was earlier).\nFine motor control in animals were assessed by the accelerated rotarod and static beam tests. Animals were habituated to the stationary rotarod for 2 min a day for 2 days. In the accelerated rotarod test each mouse was placed individually on a linearly accelerating rod (4-40 rpm over 5 minutes; LE8500, Letica Scientific Instruments, UK) and average latency to fall from the rod (maximum 300 seconds) was calculated from 3 consecutive trials (2 min interval between trials).\nas §1, with “software. Survival curves of Scn1a^+/− vehicle-treated and Scn1a^+/− CBD-treated group were compared using a Mantel-Cox test.” for “software.”"}, "Scn1a^+/− mice [3]": {"test_system": "Scn1a^+/− mice", "test": "Elevated plus maze (EPM) test, anxiety-like behaviour, Study II", "conditions": "CBD 100 mg/kg s.c. twice daily", "experimental": "as §2\nThe elevated plus maze (EPM) test was performed to assess the level of anxiety in animals (M. Chen et al., 2017). The wooden test apparatus consists of two closed arms (50×10×40 cm) and two open arms (50×10 cm) connected via a central platform (10×10 cm) and raised at a height of 50 cm above the floor. Each animal was placed on the central platform facing towards an open arm. Activity was video recorded (Swann SRDVR-16440H, UK) for 5 minutes. The video files were blinded and coded offline at the end of all experiments using Observer XT 12 (Noldus, Netherlands). Time spent on open arms was inversely related to the level of anxiety.\nas §1"}, "Scn1a^+/− mice [4]": {"test_system": "Scn1a^+/− mice", "test": "Sucrose preference test, depression-like behaviour, Study II", "conditions": "CBD 100 mg/kg s.c. twice daily", "experimental": "as §2\nThe sucrose preference test was carried out to assess the depression-like behaviour (Serova, Mulhall, & Sabban, 2017). The animals were separately housed during this test. Here, 24 hours before the test, animals were trained to drink from two bottles each containing 2% sucrose. On the first day of test, the animals were provided with a pre-weighed bottle of 2% sucrose and another containing a pre-weighed volume of tap water. The positions of the bottles were swapped after 24 hours to avoid any side preferences. After 48 hours, both bottles were weighed, and sucrose preference was calculated by using the following formula: […]\nas §1"}}, "data": [{"compound": "C=C(C)[C@@H]1CCC(C)=C[C@H]1c1c(O)cc(CCCCC)cc1O", "note": "[CBD, cannabidiol]", "values": [{"measurement": "survival curve, Scn1a^+/− vehicle-treated versus CBD-treated", "setting": "Scn1a^+/− mice [1]; CBD 100 mg/kg s.c. twice daily from P8 until P52 or death, n=12 CBD, n=29 vehicle, Mantel-Cox p=0.04, FIG. 2A", "result": "Survival was significantly less in Scn1a^+/− vehicle-treated group"}, {"measurement": "animals that died before the completion of the study (P52)", "setting": "Scn1a^+/− mice [1]; Scn1a^+/− CBD-treated, 2 of 12, CBD 100 mg/kg s.c. twice daily from P8, vehicle approximately 66% (19 of 29), p<0.0001, FIG. 2B", "result": 17, "unit": "%"}, {"measurement": "time spent on rod, accelerating rotarod, between the groups", "setting": "Scn1a^+/− mice [2]; WT vehicle, Scn1a^+/− vehicle, Scn1a^+/− CBD (100 mg/kg s.c. twice daily), p=0.44, FIG. 3A", "result": "no significant difference"}, {"measurement": "effects on motor function (conclusion)", "setting": "Scn1a^+/− mice [2]; conclusion from rotarod and static beam tests in Scn1a^+/− mice, chronic CBD 100 mg/kg s.c. twice daily", "result": "no detrimental effects on motor function"}, {"measurement": "time spent on open arms (EPM), Scn1a^+/− CBD-treated versus WT vehicle-treated", "setting": "Scn1a^+/− mice [3]; p=0.73", "result": "not different"}, {"measurement": "time spent on open arms (EPM), Scn1a^+/− vehicle-treated compared to Scn1a^+/− CBD-treated", "setting": "Scn1a^+/− mice [3]; statement describes vehicle group relative to CBD group (n=10), p=0.02, FIG. 4C", "result": "significantly less time on the open arms"}, {"measurement": "sucrose preference, Scn1a^+/− CBD-treated versus WT vehicle-treated", "setting": "Scn1a^+/− mice [4]; p=0.36", "result": "similar"}, {"measurement": "sucrose preference, Scn1a^+/− vehicle-treated compared to Scn1a^+/− CBD-treated", "setting": "Scn1a^+/− mice [4]; statement describes vehicle group relative to CBD group (n=10), p=0.01, FIG. 4D", "result": "reduced preference for sucrose"}]}]}
